pIC50, pKd, pKi: −log10 of the molar value. “Also recorded” adds a separate entry of the source.
Experiments:
AgamOBP20 = target: T1, AgamOBP20 (Anopheles gambiae, UniProt Q7Q9J3); assay: Fluorescence competitive binding test (FCBT), 1-NPN probe; parameters: species or system Anopheles gambiae s.s.
T1 sequence (Q7Q9J3 24-142): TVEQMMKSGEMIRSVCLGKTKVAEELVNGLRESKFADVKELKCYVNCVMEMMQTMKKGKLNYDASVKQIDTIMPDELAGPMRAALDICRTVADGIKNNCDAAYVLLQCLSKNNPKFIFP
Experimental: (§1) For recombinant OBPs, we first need to obtain the OBPs related genes. DNA of A. gambiae s.s. female adults was extracted following the procedure used in a previous study. The predicted AgamOBPs and AgamORs were detected using standard PCR with specific respective primers which were designed using Primer Premier 5 (Premier Biosoft, California, USA; Table S1). Each PCR mixture contained 1 μl of A. gambiae s.s. […] (200 ng·ml^−1; previously extracted using a DNA extraction kit from Transgen Biotech, Beijing, China), 12.5 μl prime STAR Max Premix (2 ×), 1.5 μl of each primer ([…]), and […] sterilized H2O. The PCR cycling conditions were as follows: an initial denaturation at 94 °C for 40 s, followed by 35 cycles at […] for 40 s (denaturing), 59 °C for 50 s (annealing) and 72 °C for 3 min. The PCR products were verified and sent for sequencing. Recombinant proteins were generated by transforming plasmids containing the verified […] genes into Escherichia coli BL21 (DE3) cells. We then induced recombinant protein expression using 1 mM isopropyl ß-D-1-thiogalactopyranoside at 37 °C for 6 h. The recombinant proteins were purified using two rounds of […] ion affinity chromatography (GE Healthcare, Milwaukee, WI, USA), following the manufacturer's instructions[5],[53]; the His-tags were removed simultaneously using recombinant enterokinase (Novagen, Madison, WI, USA), following the manufacturer's instructions. The purified proteins were desalted using extensive dialysis. The size and purity of each desalted protein were determined using 15% sodium dodecylsulphate-polyacrylamide gel electrophoresis (SDS-PAGE)[55].
(§2) This assay assumes that the receptors are 100% active, and that each receptor can only bind to one ligand[56].
(§3) Recombinant proteins were dissolved in 50 mM Tris–HCl protein buffer to yield a final concentration of […], respectively. The fluorescence competitive binding were conducted in a 1-cm quartz cell and the fluorescence intensity F95S fluorescence spectrophotometer (Shanghai Lengguang Technology Co., Ltd., Shanghai, China) at 25 °C with the following parameters: excitation of 10 nm; emission slit of 10 nm; sensitivity of 2 s; gain value of 2; excitation wavelength of 337 nm; and an emission wavelength range of 370–500 nm, as a previous study.
(§4) First, the binding constant (Kd) for each recombinant protein to the 1-N-phenyl-naphthylamine (1-NPN) fluorescent probe was detected. In brief, 2 ml of protein solution and 2 μl of 1-NPN solution were added to the quartz cell and thoroughly mixed for 1 min. Peak fluorescence was continuously recorded until it stabilized and began to decrease.
(§5) Next, the ligands were added to the quartz cell along with each receptor, in order to competitively bind to the fluorescent probe. In brief, 2 ml of protein solution and 2 ml of 1-NPN solution were added to the quartz cell, and the fluorescence peaks were scanned and recorded. Then, 2 μl of each ligand was added and allowed to sit for 1 min before the peak fluorescence was scanned and recorded. We then continued to add 2 μl aliquots of the ligand solution until the fluorescence was less than half of the initial value.
(§6) The binding curves were then linearized using a Scatchard plot, which calculates the concentration of the competitor that halves the initial fluorescence intensity (IC50).

AgamOBP5 = target: T2, AgamOBP5 (Anopheles gambiae, UniProt Q8T6R6); assay: as above; parameters: species or system Anopheles gambiae s.s.
T2 sequence (Q8T6R6 32-154): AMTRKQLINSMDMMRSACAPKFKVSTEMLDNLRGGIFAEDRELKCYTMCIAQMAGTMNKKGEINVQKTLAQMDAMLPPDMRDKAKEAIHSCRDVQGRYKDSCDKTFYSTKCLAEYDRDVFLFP
Experimental: as §1, §2, §3, §4, §5, §6

AgamORC7 = target: T3, AgamORC7 (Anopheles gambiae, UniProt Q7QCC7); assay: as above; parameters: species or system Anopheles gambiae s.s.
T3 construct: His-tag (cleaved yes); made in house; host or cells: Escherichia coli BL21 (DE3)
T3 sequence (Q7QCC7 1-478): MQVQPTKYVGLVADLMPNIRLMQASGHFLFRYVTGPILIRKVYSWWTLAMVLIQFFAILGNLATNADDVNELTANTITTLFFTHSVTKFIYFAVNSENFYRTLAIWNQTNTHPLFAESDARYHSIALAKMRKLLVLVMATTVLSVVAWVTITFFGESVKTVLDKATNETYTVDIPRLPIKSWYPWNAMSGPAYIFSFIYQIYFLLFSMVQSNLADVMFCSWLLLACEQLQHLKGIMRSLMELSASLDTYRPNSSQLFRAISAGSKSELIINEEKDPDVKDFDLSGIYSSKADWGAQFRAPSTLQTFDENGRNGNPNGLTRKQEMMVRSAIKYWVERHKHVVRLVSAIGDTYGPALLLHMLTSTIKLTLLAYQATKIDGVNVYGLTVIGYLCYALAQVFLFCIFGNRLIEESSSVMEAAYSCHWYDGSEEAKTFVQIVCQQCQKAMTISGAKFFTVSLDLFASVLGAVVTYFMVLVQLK
Experimental: as §1, §2, §3, §4, §5, §6

AgamOBP4 = target: T4, AgamOBP4 (Anopheles gambiae, UniProt Q8T6R7); assay: as above; parameters: species or system Anopheles gambiae s.s.
T4 sequence (Q8T6R7 26-150): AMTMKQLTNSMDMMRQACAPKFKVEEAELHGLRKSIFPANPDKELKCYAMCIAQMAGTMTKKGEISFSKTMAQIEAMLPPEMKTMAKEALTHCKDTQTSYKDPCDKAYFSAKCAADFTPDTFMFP
Experimental: as §1, §2, §3, §4, §5, §6

[1] = tested on: Anopheles gambiae s.s. females; assay: Dual-choice Y-tube olfactory meter repellency test; type: in vivo
Experimental: A glass Y-tube (1.6 cm i.d., 12-cm base , two 8-cm arms at a 45° angle from one another) olfactory meter described in our previous study was used in this experiment. […] The control cotton ball with triethyl citrate (without citronellal) was inserted into the other jar. Teflon tube was used to connect all parts of Y-tube olfactory meter. Fresh air was produced by an air pump at a rate of 200 ± 10 ml/min, and purified by active carbon and silicone before flowing into the jars. The headspace of citronellal volatile was combined with the purified air and went through one arm of the Y-tube while purified air without citronellal went through the other arm. The base of the Y-tube was connected to an air collection bottle. One hundred female A. gambiae s.s. were individually released in the air collection bottle (2-cm i.d., 8-cm high), where behavioral responses were monitored and recorded over a 300 s period. The collecting jar, Y-tubes, air collection bottle were cleaned with hot water (> 60 °C) after every 10 individuals were tested, and the cotton roll was renewed every 2 h. The olfactory test was repeated five times.

SMILES | binding of citronellal in words (AgamOBP20; competition with 1-NPN) | binding of citronellal in words (AgamOBP5; competition with 1-NPN) | pIC50 (AgamORC7; competition with 1-NPN, 25 °C) | pKi (AgamORC7; competition with 1-NPN, 25 °C) | pIC50 (AgamOBP4; competition with 1-NPN, 25 °C) | pKi (AgamOBP4; competition with 1-NPN, 25 °C) | repellent rate for 50% of individuals (RQ50) ([1]; Y-tube, quantity series 0.01-100 nmol on cotton ball, Probit analysis) [nmol] | Lg(RQ50) ([1]; regression of citronellal quantity vs repellent rate, Fig. 1) | pKd (AgamOBP20) | pKd (AgamOBP5) | pKd (AgamORC7; Fig. 5 panel d, Scatchard, unit inferred) | pKd (AgamOBP4)
CC(C)=CCCC(C)CC=O (stereo not drawn) [citronellal] | could not reduce fluorescent rate down below 50%; also recorded: cannot bind well | could not reduce fluorescent rate down below 50%; also recorded: cannot bind well | 5.65 | 5.80 | 5.91 | 6.15 | 4.02 | 0.604 |  |  |  | 
c1ccc(Nc2cccc3ccccc23)cc1 [1-NPN, 1-N-phenyl-naphthylamine] |  |  |  |  |  |  |  |  | 5.66 | 5.61 | 5.95 | 5.94
